Experimental data reported in US20200262869A1, “PEPTIDE ANTIBIOTIC COMPLEXES AND METHODS OF USE THEREOF” (GENENTECH, INC., priority 2017, published 2020).
≈ marks a conversion by molar mass, not a printed value. Like-named read-outs stand apart in the source and are kept apart here.

Assays:
[1] = tested on: E. coli K-12 MG1655 and isogenic matched strains; test: MIC against E. coli K-12 MG1655 and isogenic matched strains; type: cell-based; conditions: for MIC: Escherichia coli
Procedure: (§1) Minimum Inhibitory Concentration (MIC). MICs were determined by performing two-fold serial dilutions of compound in Mueller Hinton II cation-adjusted broth to a final volume of 0.1 m1 in round-bottom 96-well assay plates (Corning Life Sciences No 3788). Each well was inoculated with 5×10^5 CFU/ml and incubated at 37° C. without agitation for 18 hours. Plates were scored by eye, and the lowest compound concentration preventing visible growth was determined to be the MIC.

[2] = tested on: E. coli ATCC 25922 point mutants; test: MIC against spontaneous G0775-resistant point mutants; type: cell-based
Procedure: as §1
(§2) 20 independent colonies from each bacterial species were scraped and used to establish an overnight culture. Bacteria were concentrated by centrifugation, and approximately 3×10^9 CFUs were spread on cation adjusted Mueller Hinton agarose (MHA) plates containing G0775 at 2- to 8-times the MIC. The MHA plates were prepared from Mueller Hinton II cation adjusted broth (BBL™ 212322) and SeaKem LE Agarose (17 g/L; Lonza) as per manufactures instructions. Resistance frequency for each strain was calculated by dividing the number of colonies formed after a 48 hour incubation at 37° C. by the initial viable cell count.

[3] = tested on: 49 multidrug resistant clinical isolates of E. coli and K. pneumoniae; test: MIC against CDC challenge panel of 49 multidrug resistant clinical isolates; type: cell-based; conditions: CDC challenge set
Procedure: To better assess the ability of G0775 to circumvent specific resistance mechanisms, a single MDR isolate, CDC 0106, was focused on. […] Chromosomal mutations associated with high level quinolone resistance and polymyxin resistance were also identified (FIGS. 10A-10B). Importantly, the elements encoded by CDC 0106 confer resistance to nearly all available antibiotic classes (Table 2).
as §1

E. coli ATCC 25922 [4] = test: Time-kill; type: cell-based; conditions: E. coli ATCC 25922, across a 24 hour period
From the text: FIG. 5. […] Colony forming units (CFU) per mL data shown is an average of at least three independent experiments with error bars representing the SD.

A. baumannii ATCC 17978 = test: Frequency of resistance (FOR); type: cell-based; conditions: G0775 at 8-fold the MIC; limit of detection 10^−10
Procedure: as §2

E. coli ATCC 25922 [5] = test: Frequency of resistance (FOR); type: cell-based; conditions: G0775 at 8-fold the MIC; limit of detection 10^−10
Procedure: as §2

K. pneumoniae 43816 = test: Frequency of resistance (FOR); type: cell-based; conditions: G0775 at 8-fold the MIC; limit of detection 10^−10
Procedure: as §2

P. aeruginosa PAO1 = test: Frequency of resistance (FOR); type: cell-based; conditions: further 2-fold increase over 8-fold the MIC (16-fold MIC)
Procedure: as §2

[6] = biological target: T1, full length recombinant LepB from E. coli (Escherichia coli, UniProt P00803); test: LepB kinetic enzyme assay (fluorogenic peptide substrate); type: biochemical
T1 construct: 500 pM full length recombinant LepB from E. coli
Procedure: A 20 μL reaction in PBS (pH 7.4) containing 0.1% Triton X-100 was initiated by adding 500 pM full length recombinant LepB from E. coli to a 384-well polypropylene assay plate (Thermo Scientific) containing indicated concentration of G0775 and 10 uM fluorogenic peptide substrate Dabcyl-DAP-PAKAAE-Edans (SEQ ID NO: 6) (GL Biochem, Boston, Mass.). Substrate cleavage separates the Dabcyl quencher from the Edans fluorophore, resulting in 490 nm fluorescence (340 nm excitation). The reaction was read kinetically using a pherastar plate reader (BMG Labtech), and curves were fit to a 2-step irreversible binding model using Dynafit software (BioKin Ltd.) to determine Kinact/KI binding constants.

A. baumannii 17978 = test: Neutropenic thigh infection model in mice; type: in vivo; conditions: required a higher concentration of antibiotic; subcutaneous BID
Procedure: (§3) CD1 mice (Charles River Laboratories) were rendered neutropenic by 2 intraperitoneal injections of Cytoxan (Baxter Health Care Corporation) at 150 mg/kg on Day -5 and 100 mg/kg on Day -2. On day 0, 50 ul log-phase grown bacteria, K. pneumoniae (ATCC 43816) 1×10^5 CFU/mouse, E. coli (ATCC 25922) 1×10^5 CFU/mouse, P. aeruginosa (ATCC 27853) 1×10^6 CFU/mouse, or A. baumannii (ATCC 17978) 1×10^5 CFU/mouse, were injected into the mouse thigh muscle. At 2 and 11 hours post infection, […] was given at indicated dose subcutaneously. At 20 hours post infection, CFU was determined in the thigh muscle through serial dilutions.

[7] = tested on: K. pneumoniae strain ATCC 43816; test: Neutropenic thigh infection model in mice; type: in vivo; conditions: 5 mg/kg subcutaneously BID at 2 and 11 h, 20 h post infection
Procedure: as §3

P. aeruginosa 27853 = test: Neutropenic thigh infection model in mice; type: in vivo; conditions: required a higher concentration of antibiotic; subcutaneous BID
Procedure: as §3

K. pneumoniae (CDC 0106) = test: Neutropenic lung infection model in mice; type: in vivo; conditions: 20 h
Procedure: Balb/c mice (Jackson Laboratories) were rendered neutropenic by 2 intraperitoneal injections of Cytoxan (Baxter Health Care Corporation) at 150 mg/kg on Day −4 and 100 mg/kg on Day −1. On day 0, mice were infected intranasally with 40 ul log-phase grown K. pneumoniae (CDC 0106) at 1×10^6 CFU/mouse. At 2 and 11 hours post infection, G0775 was given at different doses subcutaneously. Ciprofloxacin (Claris Lifesciences Inc.) was dosed at 80 mg/kg subcutaneously once at 2 hour post infection. At 20 hours post infection, CFU was determined in the lung through serial dilutions.

Question: With `Cc1nc(-c2ccc(C(C)(C)C)cc2)ncc1C(=O)NC(CCN)C(=O)N(C)C1C(=O)NC(C)C(=O)NC(C(=O)NCC#N)Cc2ccc(OCCN)c(c2)-c2cc1ccc2OCCN` (stereo not shown) [G0775] as the compound, how does the MIC ([1]; MG1655, read-out: G0775 MIC, MG 1655 - LepB High, increase LepB expression level) read?
Answer: Its MIC is 1 µg/mL (≈ 1.12 µM).

Question: And the MIC ([1]; MG1655, read-out: G0775 MIC, MG 1655 - LepB Low, reduced LepB expression level)?
Answer: The MIC was 0.008 µg/mL (≈ 0.00899 µM).

Question: What about the MIC ([1]; MG1655, read-out: G0775 MIC, MG 1655 LptD4213 (imp), outer-membrane permeable) of the same compound?
Answer: The MIC was 0.004 µg/mL (≈ 0.00449 µM).

Question: What about the MIC ([1]; MG1655, read-out: G0775 MIC, MG1655 WT) of the same compound?
Answer: The MIC was 0.125 µg/mL (≈ 0.14 µM).

Question: What about the MIC ([1]; MG1655, read-out: G0775 MIC, MG1655 WT + 4 mM EDTA, outer-membrane permeable) of the same compound?
Answer: The MIC was 0.004 µg/mL.

Question: And the MIC ([1]; MG1655, read-out: G0775 MIC, MG1655 WT + 1% surfactant, lung inactivation)?
Answer: The MIC was 0.125 µg/mL.

Question: And the MIC ([1]; MG1655, read-out: G0775 MIC, MG1655 WT + 50% serum, plasma protein binding)?
Answer: The MIC was 0.125 µg/mL.

Question: And the MIC ([1]; MG1655, read-out: G0775 MIC, MG 1655 ΔacrB, efflux null)?
Answer: Its MIC is 0.125 µg/mL (≈ 0.14 µM).

Question: And the MIC ([1]; MG1655, read-out: G0775 MIC, MG 1655 ΔompC, ΔompF, doubly porin deficient)?
Answer: The MIC was 0.125 µg/mL (≈ 0.14 µM).

Question: What about the MIC ([1]; MG1655, read-out: G0775 MIC, MG 1655 ΔompC, porin deficient) of the same compound?
Answer: The MIC was 0.125 µg/mL (≈ 0.14 µM).

Question: And the MIC ([1]; MG1655, read-out: G0775 MIC, MG 1655 ΔompF, porin deficient)?
Answer: Its MIC is 0.125 µg/mL (≈ 0.14 µM).

Question: And the MIC ([1]; MG1655, read-out: G0775 MIC, MG 1655 ΔtolC, efflux null)?
Answer: Its MIC is 0.125 µg/mL (≈ 0.14 µM).

Question: And the “increase in potency relative to wild type E. coli” value ([1]; hyper-permeable E. coli strain (imp4213))?
Answer: Its value is 30 fold.

Question: And the “increase in MIC values” ([1]; over-expression of LepB in E. coli K12 MG1655)?
Answer: The value was 8 fold.

Question: What about the “decrease in MIC values” ([1]; under-expression of LepB in E. coli K12 MG1655) of the same compound?
Answer: The value was 16 fold.

Question: And the “Fold MIC Increase” value ([2]; LepB mutation A297V)?
Answer: The value was 4 Fold.

Question: What about the “Fold MIC Increase” value ([2]; LepB mutation D143Y) of the same compound?
Answer: The value was 8 Fold.

Question: What about the “Fold MIC Increase” value ([2]; LepB mutation E83K) of the same compound?
Answer: The value was 16 Fold.

Question: And the “Fold MIC Increase” value ([2]; LepB mutation F85S)?
Answer: The value was 8 Fold.

Question: And the “Fold MIC Increase” value ([2]; LepB mutation L142R)?
Answer: The value was 8 Fold.

Question: And the “Fold MIC Increase” value ([2]; LepB mutation P88L)?
Answer: The value was 16 Fold.

Question: What about the “Fold MIC Increase” value ([2]; LepB mutation P88Q) of the same compound?
Answer: The value was 4 Fold.

Question: And the “Fold MIC Increase” value ([2]; LepB mutation P88R)?
Answer: Its value is 16 Fold.

Question: And the “Fold MIC Increase” value ([2]; LepB mutation P88T)?
Answer: Its value is 4 Fold.

Question: What about the “Fold MIC Increase” value ([2]; LepB mutation V133F) of the same compound?
Answer: Its value is 16 Fold.

Question: What about the “Fold MIC Increase” value ([2]; LepB mutation V149(VVGLP)) of the same compound?
Answer: Its value is 128 Fold.

Question: And the “Fold MIC Increase” value ([2]; mutation AcrB (N282Y), off-target)?
Answer: Its value is 4 Fold.

Question: And the “reduction of susceptibility to G0775 by resistance mutations” value ([2]; resistant E. coli mutants)?
Answer: Its value is 4- to 16 fold.

Question: And the “activity against panel of 49 multidrug resistant clinical isolates (MIC)” value [3]?
Answer: The value was “maintains its potent activity against all 49 isolates”.

Question: What about the “reduction of the number of viable bacteria (time-dependent killing)” value (E. coli ATCC 25922 [4]) of the same compound?
Answer: The value was “over 6 orders of magnitude”.

Question: And the “frequency of resistance (FOR)” value (A. baumannii ATCC 17978)?
Answer: The value was “below the limit of detection”.

Question: And the “frequency of resistance (FOR)” value (E. coli ATCC 25922 [5])?
Answer: The value was “below the limit of detection”.

Question: And the “frequency of resistance (FOR)” value (K. pneumoniae 43816)?
Answer: The value was “below the limit of detection”.

Question: And the “frequency of resistance (FOR)” value (P. aeruginosa PAO1)?
Answer: The value was < 10^−10.

Question: And the kinact/KI ([6]; full-length LepB embedded in a detergent micelle)?
Answer: The kinact/KI was 1.59e+06 M⁻¹ s⁻¹.

Question: And the Ki ([6]; full-length LepB embedded in a detergent micelle, read-out: KI (prechemistry binding))?
Answer: The Ki was 0.44 nM.

Question: And the kinact ([6]; read-out: kinact (irreversible inactivation))?
Answer: Its kinact is 0.0007 s⁻¹.

Question: What about the kinact ([6]; three independent experiments, read-out: Kinact) of the same compound?
Answer: The kinact was 0.0007 ± 0.0002 s⁻¹.

Question: What about the “efficacy in neutropenic thigh model” value (A. baumannii 17978) of the same compound?
Answer: The value was “efficacious”.

Question: And the “decrease in CFU (bactericidal activity)” value [7]?
Answer: The value was over 2 log.

Question: And the “efficacy in neutropenic thigh model” value (P. aeruginosa 27853)?
Answer: Its value is “efficacious”.

Question: And the “antibacterial activity in lung infection model” value (K. pneumoniae (CDC 0106); 2 mg/kg subcutaneously BID)?
Answer: Its value is “bacteriostatic activity”.

Question: What about the “antibacterial activity in lung infection model” value (K. pneumoniae (CDC 0106); 20 mg/kg subcutaneously BID) of the same compound?
Answer: Its value is “bactericidal activity”.
